{
  "source": "patent US20250011307A1",
  "about": "“CRYSTALLINE FORMS OF BIARYL YAP/TAZ-TEAD PROTEIN-PROTEIN INTERACTION INHIBITORS” (Novartis AG, priority 2021, published 2025)",
  "format_in_all_cases": "physicochemical",
  "key": {"[1]": {"assay": "Xenon light stress test of bulk (HPLC degradation products, color, XRPD)", "parameters": "key to CL color: A: No change; B: Slight discoloration; C: Medium discoloration; D: Strong discoloration", "settings": "Compound A forms, Xenon light (1200 kLuxh, 25° C.)", "protocol": "(§1) X-ray powder diffraction (XRPD) patterns were obtained using a Bruker Advance D8 in reflection geometry. Powders were analyzed using a zero background Si flat sample holder. The radiation used was Cu Kα (A=1.5418 Å). Patterns were measured between 2° and 40° 2theta. • Sample amount: 5-10 mg • Sample holder: zero background Si flat sample holder\nas §1, with “radiation” for “radiation used”, “(λ=1.5418” for “(A=1.5418”"}, "[2]": {"assay": "Excipient compatibility stress test (HPLC degradation products, color)", "parameters": "key to CL color: A: No change; B: Slight discoloration; C: Medium discoloration; D: Strong discoloration", "settings": "Compound A forms"}, "[3]": {"assay": "Hygroscopicity (loss on drying by TGA and XRPD, as is and after storage at 92% / 80% RH)", "settings": "Compound A forms; for Loss on drying by TGA [%]: TGA temperature per cell: Modification A 110° C., amorphous 119° C., 4-hydroxybenzoate 200° C."}, "[4]": {"assay": "Solid state bulk stability stress test (HPLC degradation products, color, XRPD)", "parameters": "key to CL color: A: No change; B: Slight discoloration; C: Medium discoloration; D: Strong discoloration", "settings": "Compound A forms"}, "[5]": {"assay": "Solubility after equilibration at 25° C. for 24 h, with final pH and XRPD of solid residues", "settings": "Compound A forms"}, "[6]": {"settings": "2 weeks 50° C./75% RH, 1% in mixture 1"}, "[7]": {"settings": "2 weeks 50° C./75% RH, 1% in mixture 2"}, "[8]": {"settings": "2 weeks 50° C./75% RH, 1% in mixture 3"}, "[9]": {"settings": "2 weeks 50° C./75% RH, HGC capsule powder"}, "[10]": {"settings": "2 weeks 50° C./75% RH, HPMC capsule powder"}, "[11]": {"settings": "2 weeks 70° C./11% RH, 1% in mixture 1"}, "[12]": {"settings": "2 weeks 70° C./11% RH, 1% in mixture 2"}, "[13]": {"settings": "2 weeks 70° C./11% RH, 1% in mixture 3"}, "[14]": {"settings": "2 weeks 70° C./11% RH, HGC capsule powder"}, "[15]": {"settings": "2 weeks 70° C./11% RH, HPMC capsule powder"}, "[16]": {"settings": "2 weeks 70° C./75% RH, 1% in mixture 1"}, "[17]": {"settings": "2 weeks 70° C./75% RH, 1% in mixture 2"}, "[18]": {"settings": "2 weeks 70° C./75% RH, 1% in mixture 3"}, "[19]": {"settings": "2 weeks 70° C./75% RH, HPC capsule powder"}, "[20]": {"settings": "2 weeks 70° C./75% RH, HPMC capsule powder"}},
  "data": [
    {"molecule": "CNC(=O)c1cnc(OCCO)c(F)c1-c1c(Cl)c(F)cc2c1C[C@](c1ccccc1)([C@@H]1CCCN1)O2", "note": "[Compound A 4-hydroxybenzoate, 4-((2S,4S)-5-Chloro-6-fluoro-2-phenyl-2-((S)-pyrrolidin-2-yl)-2,3-dihydrobenzofuran-4-yl)-5-fluoro-6-(2-hydroxyethoxy)-N-methylnicotinamide]", "values": [
      {"measurement": "Bulk amber vial (XRPD)", "setting": "[1]; amber vial", "result": "No change"},
      {"measurement": "CL color", "setting": "[1]; amber vial", "result": "A"},
      {"measurement": "DP[%] degradation products, Bulk amber vial (HPLC)", "setting": "[1]; amber vial", "result": 0.2, "unit": "%"},
      {"measurement": "Bulk clear vial (XPRD)", "setting": "[1]; clear vial", "result": "No change"},
      {"measurement": "CL color", "setting": "[1]; clear vial", "result": "A"},
      {"measurement": "DP[%] degradation products, Bulk clear vial (HPLC)", "setting": "[1]; clear vial", "result": 0.2, "unit": "%"},
      {"measurement": "CL color", "setting": "[2]; [6]", "result": "A"},
      {"measurement": "DP[%] degradation products", "setting": "[2]; [6]", "result": 0.3, "unit": "%"},
      {"measurement": "CL color", "setting": "[2]; [7]", "result": "A"},
      {"measurement": "DP[%] degradation products", "setting": "[2]; [7]", "result": 0.2, "unit": "%"},
      {"measurement": "CL color", "setting": "[2]; [8]", "result": "A"},
      {"measurement": "DP[%] degradation products", "setting": "[2]; [8]", "result": 0.2, "unit": "%"},
      {"measurement": "CL color", "setting": "[2]; [9]", "result": "A"},
      {"measurement": "DP[%] degradation products", "setting": "[2]; [9]", "result": 0.3, "unit": "%"},
      {"measurement": "CL color", "setting": "[2]; [10]", "result": "A"},
      {"measurement": "DP[%] degradation products", "setting": "[2]; [10]", "result": 0.6, "unit": "%"},
      {"measurement": "CL color", "setting": "[2]; [11]", "result": "A"},
      {"measurement": "DP[%] degradation products", "setting": "[2]; [11]", "result": 0.4, "unit": "%"},
      {"measurement": "CL color", "setting": "[2]; [12]", "result": "A"},
      {"measurement": "DP[%] degradation products", "setting": "[2]; [12]", "result": 0.1, "unit": "%"},
      {"measurement": "CL color", "setting": "[2]; [13]", "result": "A"},
      {"measurement": "DP[%] degradation products", "setting": "[2]; [13]", "result": 0.2, "unit": "%"},
      {"measurement": "CL color", "setting": "[2]; [14]", "result": "A"},
      {"measurement": "DP[%] degradation products", "setting": "[2]; [14]", "result": 0.3, "unit": "%"},
      {"measurement": "CL color", "setting": "[2]; [15]", "result": "A"},
      {"measurement": "DP[%] degradation products", "setting": "[2]; [15]", "result": 0.6, "unit": "%"},
      {"measurement": "CL color", "setting": "[2]; [16]", "result": "A"},
      {"measurement": "DP[%] degradation products", "setting": "[2]; [16]", "result": 3.6, "unit": "%"},
      {"measurement": "CL color", "setting": "[2]; [17]", "result": "A"},
      {"measurement": "DP[%] degradation products", "setting": "[2]; [17]", "result": 2.3, "unit": "%"},
      {"measurement": "CL color", "setting": "[2]; [18]", "result": "A"},
      {"measurement": "DP[%] degradation products", "setting": "[2]; [18]", "result": 1.5, "unit": "%"},
      {"measurement": "CL color", "setting": "[2]; [19]", "result": "A"},
      {"measurement": "DP[%] degradation products", "setting": "[2]; [19]", "result": 1.3, "unit": "%"},
      {"measurement": "CL color", "setting": "[2]; [20]", "result": "A"},
      {"measurement": "DP[%] degradation products", "setting": "[2]; [20]", "result": 3.1, "unit": "%"},
      {"measurement": "XRPD", "setting": "[3]; After 1 day at 80% RH", "result": "No change"},
      {"measurement": "Loss on drying by TGA [%]", "setting": "[3]; After 1 day at 80% RH", "result": "0.6% (200° C.)"},
      {"measurement": "XRPD", "setting": "[3]; After 1 day at 92% RH", "result": "No change"},
      {"measurement": "Loss on drying by TGA [%]", "setting": "[3]; After 1 day at 92% RH", "result": "0.7% (200° C.)"},
      {"measurement": "Loss on drying by TGA [%]", "setting": "[3]; Hygroscopicity, before RH storage", "result": "0.5% (200° C.)"},
      {"measurement": "Bulk (XRPD)", "setting": "[4]; 2 weeks 50° C./75% RH", "result": "No change"},
      {"measurement": "CL color", "setting": "[4]; 2 weeks 50° C./75% RH", "result": "A"},
      {"measurement": "DP[%] degradation products, Bulk (HPLC)", "setting": "[4]; 2 weeks 50° C./75% RH", "result": 0.2, "unit": "%"},
      {"measurement": "Bulk (XRPD)", "setting": "[4]; 2 weeks 80° C., 11% RH", "result": "No change"},
      {"measurement": "CL color", "setting": "[4]; 2 weeks 80° C., 11% RH", "result": "A"},
      {"measurement": "DP[%] degradation products, Bulk (HPLC)", "setting": "[4]; 2 weeks 80° C., 11% RH", "result": 0.2, "unit": "%"},
      {"measurement": "Bulk (XRPD)", "setting": "[4]; 2 weeks 80° C./75% RH", "result": "No change"},
      {"measurement": "CL color", "setting": "[4]; 2 weeks 80° C./75% RH", "result": "A"},
      {"measurement": "DP[%] degradation products, Bulk (HPLC)", "setting": "[4]; 2 weeks 80° C./75% RH", "result": 1.5, "unit": "%"},
      {"measurement": "final pH", "setting": "[5]; FaSSIF V2 pH 6.5", "result": "(6.55)"},
      {"measurement": "Sol. (solubility)", "setting": "[5]; FaSSIF V2 pH 6.5, target concentration 20 mg/10 mL", "result": ">2, mg/mL"},
      {"measurement": "final pH", "setting": "[5]; FeSSIF V2 pH 5.8", "result": "(5.86)"},
      {"measurement": "Sol. (solubility)", "setting": "[5]; FeSSIF V2 pH 5.8, target concentration 20 mg/10 mL", "result": ">2, mg/mL"},
      {"measurement": "final pH", "setting": "[5]; SGF pH 2.0", "result": "(2.36)"},
      {"measurement": "Sol. (solubility)", "setting": "[5]; SGF pH 2.0, target concentration 20 mg/10 mL", "result": ">2, mg/mL"},
      {"measurement": "final pH", "setting": "[5]; Water", "result": "(7.66)"},
      {"measurement": "Sol. (solubility)", "setting": "[5]; Water, target concentration 20 mg/10 mL", "result": ">2, mg/mL"},
      {"measurement": "final pH", "setting": "[5]; pH 1.2, 100 mM HCl", "result": "(1.18)"},
      {"measurement": "Sol. (solubility)", "setting": "[5]; pH 1.2, 100 mM HCl, target concentration 20 mg/10 mL", "result": ">2, mg/mL"},
      {"measurement": "final pH", "setting": "[5]; pH 3.0, 50 mM citrate buffer", "result": "(3.12)"},
      {"measurement": "Sol. (solubility)", "setting": "[5]; pH 3.0, 50 mM citrate buffer, target concentration 20 mg/10 mL", "result": ">2, mg/mL"},
      {"measurement": "final pH", "setting": "[5]; pH 4.7, 50 mM acetate buffer", "result": "(4.78)"},
      {"measurement": "Sol. (solubility)", "setting": "[5]; pH 4.7, 50 mM acetate buffer, target concentration 20 mg/10 mL", "result": ">2, mg/mL"},
      {"measurement": "final pH", "setting": "[5]; pH 6.8, 50 mM phosphate buffer", "result": "(6.75)"},
      {"measurement": "final pH", "setting": "[5]; pH 6.8, 50 mM phosphate buffer with 50 mM Na taurocholate", "result": "(6.72)"},
      {"measurement": "Sol. (solubility)", "setting": "[5]; pH 6.8, 50 mM phosphate buffer with 50 mM Na taurocholate, target concentration 20 mg/10 mL", "result": ">2, mg/mL"},
      {"measurement": "Sol. (solubility)", "setting": "[5]; pH 6.8, 50 mM phosphate buffer, target concentration 20 mg/10 mL", "result": ">2, mg/mL"}
    ]}
  ]
}
